# Test results as given in US20190351019A1, “STEROID ADMINISTRATION AND IMMUNOTHERAPY” (Intrexon Corporation, priority 2016, published 2019).
# Assay: Infusion of CAR-T cells followed by prednisone in a B-ALL patient: GVHD course and blood counts (case report)
# Type: in vivo, human
# Details: about 1 mg/kg starting day 14; on day 18 (or Day 48 since administration of CAR-T cells); dose then reduced to about 0.5 mg/kg
# Description: A person was diagnosed with B-cell acute lymphoblastic leukemia (B-ALL). […] Multiple salvage therapies were given. POMP maintenance therapy was subsequently started. The patient further developed graft-versus-host disease GVHD and was treated with prednisone and tacrolimus. Additional radiation therapy (XRT), immunotherapy, hyperCAVD and O-EPOCH were further administered to the patient. Further, lymphodepletion was induced in the patient with cyclophosphamide at 500 mg/m^2 and fludarabine at 30 mg/m^2 for 3 days. Following lymphodepletion, 10^6 CAR-T cells/kg were infused into the patient on day 0. […] About 1 mg/kg of prednisone was administered starting day 14. […] White blood cell count (WBC) was 2.7 and absolute lymphocyte count (ALC) was 200.
compound,measurement,value
C[C@]12C=CC(=O)C=C1CC[C@@H]1[C@@H]2C(=O)C[C@@]2(C)[C@H]1CC[C@]2(O)C(=O)CO [prednisone],outcome of GVHD under prednisone,GVHD was resolved
